In patent US8785472B2, “Use of dextromethorphan in treating addictive behavior or bipolar disorder” (National Cheng Kung University, priority 2010, dated 2014):
“Also recorded” adds a separate entry of the source.

Tests used:
[1] = system: plasma TNF-alpha, CRP, IL-1beta, IL-6, IL-8, BDNF; experiment: Plasma immunological markers (ELISA) in the DM add-on methadone trial; assay type: in vivo, human; settings: for plasma TNF-alpha concentration: FIG. 3
Experimental: • Human Cytokine Array I (Ray Biotech Inc., Norcross, Ga.) consisted of 23 different cytokine and chemokine antibodies spotted in duplicate onto a membrane (Dvorakova et al. 2004). The membranes were blocked with 10% bovine serum albumin in Tris-buffered saline according to the instructions of the manufacturer. One and a half milliliters of conditioned medium was added to each membrane in separate wells of a six-well plate. The membranes were shaken at 110 rpm at room temperature for an hour and a half. All washes were done in new six-well plates, according to the instructions of the manufacturer. Two milliliters of a 1:500 dilution of biotinconjugated antibodies was added to each membrane, and the mixture was incubated on a shaker for an hour and a half at room temperature. Following the wash, the membranes were incubated with a 1:40,000 dilution of strepavidin-conjugated peroxidase for 1 hour at room temperature, according to the instructions of the manufacturer. Following a thorough wash, the membranes were exposed to a peroxidase substrate (ChemGlow West; Alphalnnotech Corp., San Leandro, Calif.) for 5 min in the dark before imaging. Two or six individual membranes were placed side-by-side in a plastic protective folder and sealed. Imaging was done with a UVP AutoChemi imaging system within 30 min of exposure to the substrate. Exposure times ranged from 1 to 10 min. Chemiluminescence was quantified with LabWorks imaging and analysis software. Horseradish peroxidase (HRP)-conjugated antibody served as a positive substrate control at six spots and was also used to identify membrane orientation. For each spot the net density gray level was determined by subtracting the background gray levels from the total raw density gray levels. The relative fold difference in cytokine amount was determined in reference to the amount present on the control culture membrane based on the following: average treated culture cytokine spot gray levels/average control culture cytokine spot gray levels. 2. ELISA • Cytokine was quantified by using the Flexia antibody pair system (Bio-Source Intl., Camarillo, Calif.). Basically, the enzyme-linked immunosorbent assays (ELISAs) were optimized by using 96-well plates (MaxiSorp; Nalge Nunc International Corp., Naperville, Ill.) coated with 100 μl of strepavidin (Sigma, St. Louis, Mo.) at 5 μg/ml in water overnight at 37° C. or until all water was evaporated. All plates were stored desiccated at 4° C. until use. Biotinylated F(ab)2 coating antibody (5 μg/ml) was added to each well, and the plate was incubated at 37° C. for 2 hours. All wells were blocked and washed according to the instructions of the manufacturer. Standards or samples (100 μl) were added to the wells, and the plates were incubated at 37° C. for 1 hour. HRP-conjugated antibody (10 μg/ml) was added for an additional hour at 37° C. The plates were then washed thoroughly according to the instructions of the manufacturer. One hundred microliters of tetramethlybenzidine substrate (Roche, Indianapolis, Ind.) was added to each well, and the plates were held for 30 min in the dark. The reaction was stopped by the addition of 100 μl of 2 NH2SO4 to each well. The absorbance was read on an automated plate reader (Tecan U.S. Inc.) at 450 nm (reference wavelength, 650 nm). Values (in picograms per milliliter) were calculated from a standard curve. Samples were diluted up to 1:20, depending on the concentration.
The immunological parameters, C-reactive protein, TNF-α and interleukins was measured in the blood samples taken at Screen, week 1, week 4, week 8 and at the end of the study.

[2] = system: subjects with bipolar I or II disorder; experiment: Double-blind DM add-on to valproate, 12 weeks: YMRS, HDRS, CGI; assay type: in vivo, human; settings: for YMRS score: DM 60 mg/day add-on to VPA
Description: Totally 292 male and female subjects with bipolar I or II disorder, from the Department of Psychiatry at National Cheng Kung University Hospital and National Defense Medical Center were recruited. […] The Institutional Review Board for the Protection of Human Subjects approved the study protocol by both medical centers.
The add-on double-blind study treatment with DM/place was commenced at randomization for 12 weeks while patients continue open-label VPA. Subjects were randomized to either with 60 mg per day of DM or placebo at Baseline and proceeded to double-blind Add-On Treatment. The treatment response and side effect were measured to clarify the curative effect of DM add-on therapy to VPA in the treatment of bipolar disorders. […] Concomitant benzodiazepine medication (preferably up to 8 mg lorazepam) was used for daytime sedation, agitation or insomnia during the study. Risperidone 1-6 mg/daily and fluoxetine 20 mg/daily were permitted during manic or depressive stage, and anticholinergic drug was also used for the extrapyramidal syndrome (EPS).
The Chinese version of the modified SADS-L, a semi-structured interview aimed at formulating the main diagnoses based upon DSM-IV criteria with good inter-rater reliability. This modified version of SADS-L with its diagnoses was used as the gold standard. The severity of current symptoms was assessed by using the YMRS and HDRS. The diagnoses of a mood disorder were made according to DSM-IV criteria, except for bipolar II disorder, where the duration criterion for hypomania of 4 days was left out but 2-day cutoff for hypomania was used instead, because the 4 days minimum duration might not be based on data and the newly adopted cutoff had been supported by several previous reports. The side effect was measured using Clinical Global Impression (CGI) at each visit point.
(§1) All of the above, vital sign, and immunological markers were measured at baseline, 1, 2, 4, 8 and 12 weeks. For the 30 subjects of health control were also recruited for comparing the immune markers. The degree of benefit on symptoms after the week 4, 8 and end of treatment due to add-on DM treatment to VPA in comparison with placebo using a main measure of total psychopathology. The safety and tolerability and measure and assess the changes of immunology, and clinical features between the group with add-on DM treatment with placebo from Baseline to the end of study were compared.
For each scale, data were analyzed using last observation carried forward (LOCF) method, in which the last observation was entered for missing visits. To assess the efficacy in various clinical domains and take into account patient effects, mixed-effects models (Lange & Ryan 1989) were used (with intercept as the random effects) for all normally distributed outcomes, with main effects for treatment (DM or placebo), time (0, 1, 2, 4, 8, 12 weeks), and the treatment×time interaction. The analysis of the response rate was intent to treat. All hypothesis tests were 2-sided and were conducted at α=0.05. The post hoc of independent t test was then used to examine which time point the effect of add-on treatment started. P<0.05 was considered statistically significant for all two-sided tests. Statistical analyses were carried out using SPSS for windows (version 15.0).

[3] = system: plasma TNF-α, IL-1β, IL-8, CRP, BDNF; experiment: Plasma cytokine level (ELISA) in the DM add-on valproate trial; assay type: in vivo, human
Experimental: Blood routine, SGOT, SGPT, BUN and creatinine were measured only while the samples were taken at screen and at the end of the study. Plasma cytokine was quantified using the enzyme-linked immunosorbent assays (ELISAs). The Quantikine Human cytokine kit (R&D system), and Molecular Devices (SpectraMax-M2) ELISA reader were used to analyze the plasma cytokine level. The immunological parameters, BDNF, TNF-α, and interleukins were measured in the blood samples. The low limit sensitivity was 0.5 pg/ml, 0.125 pg/ml and 62.5 pg/ml for TNF-α, IL-1β and BDNF respectively. Finally, we used HPLC with UV detector to measure the plasma DM level.
as §1

[4] = system: rat primary mixed mesencephalic neuron-glia cultures; settings: cited from earlier work
LPS and MPTP PD models = settings: cited from earlier work
[5] = system: methadone-maintained male inpatients; settings: DM at high doses (120, 240, 480 mg/day in increasing order); cited from earlier work
[6] = system: subjects with opioid dependence; experiment: Double-blind DM add-on to methadone maintenance therapy, 12 weeks: methadone dose and urine opioid
[7] = BP subjects, after 12 weeks depakine add-on dextromethorphan vs pretest, FIG. 11
[8] = normal controls vs BP subjects, before and after treatment (data not shown)

COc1ccc2c(c1)[C@]13CCCC[C@@H]1[C@H](C2)N(C)CC3 [DM, Dextromethorphan]
plasma IL-6 concentration ([1]; between groups throughout 12-week treatment, FIG. 6): no significant differences
plasma IL-8 concentration ([1]; between groups throughout 12-week treatment, FIG. 7): no significant differences
plasma BDNF concentration ([1]; between groups throughout 12-week treatment, FIG. 8): no significant differences
plasma TNF-alpha concentration ([1]; both high and low plasma DM groups vs placebo): Significantly lower plasma TNF-alpha concentration
plasma IL-1beta concentration ([1]; both high and low plasma DM level groups vs placebo, FIG. 5): lower plasma IL-1beta concentration
plasma TNF-alpha concentration ([1]; low plasma DM group compared with high plasma DM group): tendency of more decrease of plasma TNF-alpha concentration
plasma CRP concentration ([1]; only in low plasma DM group, FIG. 4): lower plasma CRP concentration
HDRS score, DM vs placebo ([2]; BP I): no differences
YMRS score, DM vs placebo ([2]; BP I): no differences
YMRS score ([2]; BP I, Baseline): 8.08 ± 5.35
YMRS score ([2]; BP I, Week 1): 8.08 ± 5.35
YMRS score ([2]; BP I, Week 2): 7.31 ± 5.00
YMRS score ([2]; BP I, Week 4): 5.86 ± 3.01
YMRS score ([2]; BP I, Week 8): 6.16 ± 3.61
YMRS score ([2]; BP I, Week 12): 5.80 ± 4.04
CGI-therapeutic effect score, DM vs placebo ([2]; BP I, p=0.07, FIG. 10): borderline significance; also recorded: Borderline improvement
effectiveness in hypomania stage ([2]; BP II patients, dextromethorphan add-on depakine, after 8 weeks of treatment): more effective
YMRS score ([2]; BP II, Baseline): 5.77 ± 3.25
YMRS score ([2]; BP II, Week 1): 5.60 ± 2.99
YMRS score ([2]; BP II, Week 2): 5.88 ± 3.13
YMRS score ([2]; BP II, Week 4): 5.60 ± 2.90
YMRS score ([2]; BP II, Week 8 (p = 0.01 vs placebo)): 4.40 ± 2.26
YMRS score ([2]; BP II, Week 12 (p = 0.008 vs placebo)): 4.26 ± 1.97
YMRS score, DM vs placebo over time ([2]; BP II, F=5.68, p=0.02, FIG. 9): significant difference of YMRS score
plasma IL-1β ([3]; BP patients, after the add-on DM treatment): decrease
plasma IL-8 level [3, 7]: significant decreasing
plasma TNF-α level [3, 7]: significant decreasing
plasma BDNF [3, 8]: no difference
plasma CRP [3, 8]: no difference
neuroprotection with post-treatment ([4]; DM added up to 60 minutes after the addition of LPS): Significant neuroprotection
number of dopamine neurons and dendrite morphology ([4]; pretreated with DM (10 μM) before LPS stimulation): significantly more numerous and the dendrites less affected
concentration protecting dopamine neurons against LPS-induced reduction of dopamine uptake ([4]; rat primary mixed mesencephalic neuron-glia cultures): 1 to 10 µM
protective effect in animal PD models (LPS and MPTP PD models): potent protective effect
effects on heart rate, blood pressure, temperature and plasma bromide [5]: mild elevations
percentage morphine-positive urine ([6]; both high (>30 ng/ml) and low (<=30 ng/ml) plasma DM level groups vs placebo, FIG. 2): lower percentage morphine-positive urine
methadone dosage change ([6]; low plasma DM level group (<=30 ng/ml) vs high plasma DM group and placebo, 12 weeks add-on to methadone, FIG. 1): highest tendency of decrease of methadone use
